US20240051946A1, “TARGETED PROTEIN DEGRADATION OF PARP14 FOR USE IN THERAPY” (Ribon Therapeutics, Inc., priority 2022, published 2024)

Molecular target: T1, catalytic domain of human PARP14 (residues 1611 to 1801) with NanoLuc tag (Homo sapiens, UniProt Q460N5)
T1 construct: expressed in transfected cells; host or cells: HEK-293T cells (ATCC), plasmid pRTX240 in pcDNA3.1(-)
T1 sequence (Q460N5 1611-1801): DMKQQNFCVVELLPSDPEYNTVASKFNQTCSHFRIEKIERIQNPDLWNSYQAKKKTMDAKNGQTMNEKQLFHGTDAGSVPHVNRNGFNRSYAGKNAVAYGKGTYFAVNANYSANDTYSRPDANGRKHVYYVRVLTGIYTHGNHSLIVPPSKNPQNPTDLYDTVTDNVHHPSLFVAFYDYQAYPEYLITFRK
Test: NanoLuc assay for the degradation of PARP14
Type: cell-based
Conditions: Assay A; NanoLuc-PARP14 overexpressed in HEK-293T cells; 2 hours at 37 degrees; luminescence
Method: The catalytic domain of human PARP14 (residues 1611 to 1801, GenBank Accession No. NM_017554) was inserted into the pcDNA3.1(−) vector. The insert also contained a NanoLuc tag on the N terminus of the PARP14 protein.
Degradation of PARP14 protein was assessed using measurement of the NanoLuc tag as proxy for the PARP14 protein. PARP14 with NanoLuc tag was overexpressed in […] cells (ATCC) using the plasmid described in Table 1. Plasmid DNA was diluted in empty vector DNA then added to 1.163 mL of phenol red free OptiMEM (Thermo Fisher). Plasmid DNA concentrations used in each assay described in Table 1. The plasmid DNA was mixed with 78.5 μL of Fugene HD (Promega) and allowed to incubate 5 minutes.
Next, 1.125 mL were added to 10 million 293T cells in DMEM (Thermo Fisher) supplemented with 10% FBS (VWR) and 1× Glutamax (Gibco). The transfection was incubated for 24 hrs at 37 degrees in an incubator supplemented with 5% CO2. The cells were then trypsinized and brought up in phenol red free OptiMEM media. Transfected HEK-293T cells were diluted to […] and then added to assay plate (Corning 3574) using a Multidrop (Thermo Fisher) to add 40 μL per well of the 384 well plate, resulting in 5,000 cells per well. 40 nL of a dose response curve diluted in DMSO of each test compound was added to the cell plate using a Mosquito (TTP Labtech) and the plate was incubated at 37 degrees for 2 hours. Assay plate was brought to room temperature then 20 μL per well of NanoGlo (Promega) was added to the plate. Luminescence was measured on an Envision (Perkin Elmer).
The average DMSO was calculated from 32 wells containing 0.1% DMSO only in columns 12 and 24 of the assay plate. The % of DMSO values were calculated as described below: […]
The % of DMSO values were plotted as a function of compound concentration and the following 4-parameter fit was applied to derive the DC50 values:
where top, bottom, and Hill Coefficient are allowed to float. Y is the % of DMSO and X is the compound concentration.
DC50 data for the Example compounds is provided below in Table 2 (“+” is <0.1 μM; “++” is ≥0.1 μM and <1 μM; and “+++” is ≥1 μM).

Row | DC50 [nM] | Compound
1 | < 100 | O=C1CCC(N2C(=O)c3cccc(N4CCN(CC5CCN(C(=O)CN6CCC(SCc7nc8cc(NC9CCCC9)cc(F)c8c(=O)[nH]7)CC6)CC5)CC4)c3C2=O)C(=O)N1 (centres unmarked) [Example 1, 4-(4-((1-(2-(4-(((7-(cyclopentylamino)-5-fluoro-4-oxo-3,4-dihydroquinazolin-2-yl)methyl)thio)piperidin-1-yl)acetyl)piperidin-4-yl)methyl)piperazin-1-yl)-2-(2,6-dioxopiperidin-3-yl)isoindoline-1,3-dione]
2 | < 100 | O=C1CCC(N2C(=O)c3cccc(N4CCN(CC5CCN(C(=O)CN6CCC(SCc7nc8cc(OCC9CCOCC9)cc(F)c8c(=O)[nH]7)CC6)CC5)CC4)c3C2=O)C(=O)N1 (centres unmarked) [Example 2, 2-(2,6-dioxopiperidin-3-yl)-4-(4-((1-(2-(4-(((5-fluoro-4-oxo-7-((tetrahydro-2H-pyran-4-yl)methoxy)-3,4-dihydroquinazolin-2-yl)methyl)thio)piperidin-1-yl)acetyl)piperidin-4-yl)methyl)piperazin-1-yl)isoindoline-1,3-dione]
3 | < 100 | O=C(CN1CCC(SCc2nc3cc(OCC4CCOCC4)cc(F)c3c(=O)[nH]2)CC1)NCCCCCCNC(=O)c1cccc(N2CCC(=O)NC2=O)c1 [Example 3, 3-(2,4-dioxotetrahydropyrimidin-1(2H)-yl)-N-(6-(2-(4-(((5-fluoro-4-oxo-7-((tetrahydro-2H-pyran-4-yl)methoxy)-3,4-dihydroquinazolin-2-yl)methyl)thio)piperidin-1-yl)acetamido)hexyl)benzamide]
4 | 100 to 1000 | O=C(CN1CCC(SCc2nc3cc(OCC4CCOCC4)cc(F)c3c(=O)[nH]2)CC1)NCCCCNC(=O)c1cccc(N2CCC(=O)NC2=O)c1 [Example 4, 3-(2,4-dioxotetrahydropyrimidin-1(2H)-yl)-N-(4-(2-(4-(((5-fluoro-4-oxo-7-((tetrahydro-2H-pyran-4-yl)methoxy)-3,4-dihydroquinazolin-2-yl)methyl)thio)piperidin-1-yl)acetamido)butyl)benzamide]
5 | < 100 | O=C(CN1CCC(SCc2nc3cc(OCC4CCOCC4)cc(F)c3c(=O)[nH]2)CC1)NCCCCCCN1CCC(c2ccc(NC3CCC(=O)NC3=O)cc2)CC1 (centres unmarked) [Example 5, N-(6-(4-(4-((2,6-dioxopiperidin-3-yl)amino)phenyl)piperidin-1-yl)hexyl)-2-(4-(((5-fluoro-4-oxo-7-((tetrahydro-2H-pyran-4-yl)methoxy)-3,4-dihydroquinazolin-2-yl)methyl)thio)piperidin-1-yl)acetamide]
6 | < 100 | O=C(CN1CCC(SCc2nc3cc(OCC4CCOCC4)cc(F)c3c(=O)[nH]2)CC1)NCCCCCC(=O)N1CCC(c2ccc(NC3CCC(=O)NC3=O)cc2)CC1 (centres unmarked) [Example 6, N-(6-(4-(4-((2,6-dioxopiperidin-3-yl)amino)phenyl)piperidin-1-yl)-6-oxohexyl)-2-(4-(((5-fluoro-4-oxo-7-((tetrahydro-2H-pyran-4-yl)methoxy)-3,4-dihydroquinazolin-2-yl)methyl)thio)piperidin-1-yl)acetamide]
7 | < 100 | O=C(CN1CCC(SCc2nc3cc(OCC4CCOCC4)cc(F)c3c(=O)[nH]2)CC1)NCCCCN1CCC(c2ccc(NC3CCC(=O)NC3=O)cc2)CC1 (centres unmarked) [Example 7, N-(4-(4-(4-((2,6-dioxopiperidin-3-yl)amino)phenyl)piperidin-1-yl)butyl)-2-(4-(((5-fluoro-4-oxo-7-((tetrahydro-2H-pyran-4-yl)methoxy)-3,4-dihydroquinazolin-2-yl)methyl)thio)piperidin-1-yl)acetamide]
8 | < 100 | O=C(CN1CCC(SCc2nc3cc(OCC4CCOCC4)cc(F)c3c(=O)[nH]2)CC1)NCCCC(=O)N1CCC(c2ccc(NC3CCC(=O)NC3=O)cc2)CC1 (centres unmarked) [Example 8, N-(4-(4-(4-((2,6-dioxopiperidin-3-yl)amino)phenyl)piperidin-1-yl)-4-oxobutyl)-2-(4-(((5-fluoro-4-oxo-7-((tetrahydro-2H-pyran-4-yl)methoxy)-3,4-dihydroquinazolin-2-yl)methyl)thio)piperidin-1-yl)acetamide]
